Paper PMC11462456 (Chemical Science, 2024)

Columns and labels:
[1] = test system: HCT116 cells; experiment: CellTiter-Glo 2D metabolic activity assay, HCT116; assay type: cell-based; conditions: Homo sapiens, HCT-116, 2D culture, 48 h
Procedure: 4.4 Cell viability assay on 2D cells cultures
HEK293, HCT116, A549,andSKOV-3 cells were seeded in 96-well tissue culture plates at a density of 2000-3000 cells per well in 100 µl of growth medium and incubated overnight at 37 °C with 5% CO2. The following day, the cells were treated with various concentrations of compounds or 0.05% DMSO for 48 h. After treatment, add 100 μl of Cell Titer-Glo® 2.0 Reagent (cat. no. G9243, Promega) in each well, then the 96-well plates were put on an orbital shaker for 10 min and then allow the plate to incubate at room temperature for 10-20min to stabilize the luminescent signal. Luminescence readout (Gen5 Data Analysis Software v3.08.01) was performed to record luminescence.
(1 picture or pasted object on this page, not shown here)

[2] = biological target: T1, CRBN (Homo sapiens, UniProt Q96SW2); experiment: E3 ligase homo-degradation by western blot, CRBN; assay type: cell-based; conditions: HEK293 cells, 4 h, 0.1, 1 and 10 μM
T1 construct: western blot analysis of the levels of CRBN and VHL E3 ligase in cell lysate; endogenous in cells; host or cells: HEK293 (ATCC)
T1 sequence (Q96SW2 whole entry): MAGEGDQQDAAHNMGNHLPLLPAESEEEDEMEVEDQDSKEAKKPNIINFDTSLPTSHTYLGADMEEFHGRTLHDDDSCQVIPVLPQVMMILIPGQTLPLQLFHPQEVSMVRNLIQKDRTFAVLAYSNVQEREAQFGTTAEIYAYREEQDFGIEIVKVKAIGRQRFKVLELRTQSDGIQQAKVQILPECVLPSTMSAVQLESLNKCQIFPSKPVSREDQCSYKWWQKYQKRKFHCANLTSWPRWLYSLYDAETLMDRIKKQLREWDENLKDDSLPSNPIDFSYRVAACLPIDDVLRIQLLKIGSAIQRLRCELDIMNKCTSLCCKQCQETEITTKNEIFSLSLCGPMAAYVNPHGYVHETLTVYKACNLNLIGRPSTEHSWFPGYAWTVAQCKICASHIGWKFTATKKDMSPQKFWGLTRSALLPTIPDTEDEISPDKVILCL
Source text: (§1) 4. Biological experiments
(§2) Primary antibodies used for western blotting included anti-human BRD2(1:2000, rabbit monoclonal, Abcam, ab139690), anti-human BRD3 (1:1000, rabbit monoclonal, Abcam, ab264420), anti-human BRD4 (E2A7X) (1:1000, rabbit monoclonal, Cell Signaling Technology, #13440), anti-human VHL (1:1000, rabbit polyclonal, Cell Signaling Technology, #68547), anti-human CRBN (D8H3S) (1:1000, rabbit polyclonal, Cell Signaling Technology, #71810), anti-human alpha Tubulin, clone B-5-1-2 (1:5000, mouse monoclonal, Merck Life Science, # 32-2500).Secondary antibodies used for western blot included: anti-mouse horseradish peroxidase-linked antibody (1:3000, sheep, GE Healthcare Life Sciences, #NA931V), and anti-rabbit horseradish peroxidase-linked antibody (1:8000, donkey, GE Healthcare Life Sciences, #NA934V). Reagent for degradation assay and compounds […]
dr. Serge Van Calenbergh, Ghent University).
4.2 Cell lines and culture
HEK293, A549, SKOV-3, HCT116 cells (ATCC)were grown in DMEM (Gibco),and all cells were supplemented with 10% (v/v) fetal bovine serum (FBS) (Sigma), […] penicillin/streptomycin solution (Thermo Fisher Scientific) and maintained at 37 °C and 5% CO2 in a humidified atmosphere. All cells used were tested monthly using the Mycoalert Mycoplasma Detection Kit (cat. no. LT07-318, Lonza) to exclude mycoplasma contamination.
4.3 Degradation assays by Western blot
General method of Western blot: Lysates were sonicated and centrifuged at 4 °C at 20000 g for 15 min, and the supernatants were transferred to new tubes. Protein concentration of cell lysates was measured using the DC Protein Assay kit (BIO-RAD) following manufacturer's instructions. Cell lysates were mixed with reducing sample buffer (0.5 M Tris-HCl (pH 6.8), 43% glycerol, 9.2% SDS, 5% 2-mercaptoethanol, 5% bromophenol blue) and boiled for 5 min at 95°C. […]
(§3) Figure S5 Homo-degradation effect in Dual-ligand PROTACs. […] Subsequently, cell lysates were prepared and the protein levels of CRBN or VHL E3 ligase were assessed by Western blotting. […]

[3] = test system: A549 cells; experiment: MTT cell viability with and without washout; assay type: cell-based, human
Procedure: Figure S6 Dual-ligand PROTAC activity is not caused by enhanced BRD-inhibition by dual JQ1
display. A549 cells were treated with an escalating dose of 2J2V, 2J-N3 and JQ1, respectively, for 8h.
Subsequently, cells were either washed and cultured in fresh medium, or left untouched. After a total
of 48h, cell viability was measured by MTT assay (n=6). […]

[4] = Body weight change in A549 xenograft mice; assay type: in vivo, mouse; conditions: i.p.
Procedure: 4.7 Therapeutic anti-tumor evaluation
Animal experiments were carried out in accordance with the regulatory guidelines of the Ethics Committee of the Ghent University Hospital. 30 female Swiss Nude Immunodeficient mice (Crl:NU(Ico)-Foxn1nu) of 5 weeks-6 weeks old (Charles River) were subcutaneously injected with […] A549 (1:1 serum free DMEM medium: Matrigel (Corning)). 10 days post inoculation ,mice were randomized into five groups (6 mice/group) with equal average tumor volume and treatment was started: (1) the control group: Vehicle(20% PEG400 and 5% […]
2J2V group (0.1 mg/kg), (5) the 2J2V group(0.5 mg/kg).Mice were treated on Day 0, Day 2, Day 4, Day 11, Day 18 by intraperitoneal injection. Tumor growth was monitored every 3 days by caliper, and the tumor volume was calculated as 1/2 × length × width2. Body weight was monitored every 3 days by weighing scale. […]
The reduced […]
proteins were alkylated with 40 mM iodoacetamide (IAA) in the dark for 30 minutes. Then samples were acidified with 1.2% aqueous phosphoric acid and mixed with 6× volumes of 90% methanol, 100 mM TEAB, pH 7.1 (S-Trap binding buffer). The samples were loaded onto the (1 picture or pasted object on this page, not shown here)

[5] = biological target: T2, VHL (Homo sapiens, UniProt P40337); experiment: E3 ligase homo-degradation by western blot, VHL; assay type: cell-based; conditions: HEK293 cells, 4 h, 1 μM and 10 μM
T2 construct: western blot analysis of the levels of CRBN and VHL E3 ligase in cell lysate; endogenous in cells; host or cells: HEK293 (ATCC)
T2 sequence (P40337 whole entry): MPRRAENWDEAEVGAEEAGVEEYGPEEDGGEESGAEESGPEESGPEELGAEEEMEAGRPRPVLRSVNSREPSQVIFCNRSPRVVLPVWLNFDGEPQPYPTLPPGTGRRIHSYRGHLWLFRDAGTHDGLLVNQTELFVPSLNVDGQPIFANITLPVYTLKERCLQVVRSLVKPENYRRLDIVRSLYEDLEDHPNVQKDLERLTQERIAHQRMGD
Source text: as §1, §2
dr. Serge Van Calenbergh, Ghent University). […]
General method of Western blot: Lysates were sonicated and centrifuged at 4 °C at 20000 g for 15 min, and the supernatants were transferred to new tubes. Protein concentration of cell lysates was measured using the DC Protein Assay kit (BIO-RAD) following manufacturer's instructions. […]
as §3

Cc1ncsc1-c1ccc(CNC(=O)C2CC(O)CN2C(=O)C(NC(=O)COCCOCCOCCNC(=O)CC2N=C(c3ccc(Cl)cc3)c3c(sc(C)c3C)-n3c(C)nnc32)C(C)(C)C)cc1 (stereo not shown) [MZ1, reference compound]
EC50 [1]: 0.1 µM

Cc1sc2c(c1C)C(c1ccc(Cl)cc1)=N[C@@H](CC(=O)NCCOCCOCCNC(=O)C[C@H](NC(=O)COCCOCCOCCOCCn1cc(CCC(=O)N[C@@H](CC(=O)NCCOCCOCCNc3cccc4c3C(=O)N(C3CCC(=O)NC3=O)C4=O)C(=O)NCCOCCOCCNc3cccc4c3C(=O)N(C3CCC(=O)NC3=O)C4=O)nn1)C(=O)NCCOCCOCCNC(=O)C[C@@H]1N=C(c3ccc(Cl)cc3)c3c(sc(C)c3C)-n3c(C)nnc31)c1nnc(C)n1-2 (stereo partly shown) [2J2P]
CRBN level (homo-degradation) [2]: did not induce any significant decrease of CRBN

Cc1ncsc1-c1ccc(C(C)NC(=O)C2CC(O)CN2C(=O)C(NC(=O)COCCOCCNC(=O)CC(NC(=O)CCc2cn(CCOCCOCCOCCOCC(=O)NC(CC(=O)NCCOCCOCCNC(=O)CC3N=C(c4ccc(Cl)cc4)c4c(sc(C)c4C)-n4c(C)nnc43)C(=O)NCCOCCOCCNC(=O)CC3N=C(c4ccc(Cl)cc4)c4c(sc(C)c4C)-n4c(C)nnc43)nn2)C(=O)NCCOCCOCC(=O)NC(C(=O)N2CC(O)CC2C(=O)NC(C)c2ccc(-c3scnc3C)cc2)C(C)(C)C)C(C)(C)C)cc1 (stereo not shown) [2J2V]
cytotoxic activity ([3]; 48 hours): much more potent | cytotoxic potency after washout ([3]; washout after 8 hours, 48 hours total): largely retained its potency after washout | body weight change ([4]; 0.1 mg kg−1): no detectable decrease in body weight | body weight change ([4]; 0.5 mg kg−1): slight body weight decrease | VHL homo-degradation [5]: did induce homo-degradation of VHL
